# Measurements as given in ChEMBL document CHEMBL1828555, “Primary amino acid derivatives: substitution of the 4'-N'-benzylamide site in (R)-N'-benzyl 2-amino-3-methylbutanamide, (R)-N'-benzyl 2-amino-3,3-dimethylbutanamide, and (R)-N'-benzyl 2-amino-3-methoxypropionamide provides potent anticonvulsants with pain-attenuating properties” (J Med Chem, 2011).
# The source made the active and inactive calls. No cut-off for these calls is given here.
# Tests used:
# Mus musculus [1] = assay: Analgesic activity in ip dosed NMRI mouse assessed as reduction in formalin-induced neuropathic pain after 30 mins; assay type: functional; conditions: 0.5 h
# Mus musculus [2] = assay: Anticonvulsant activity in ip dosed albino CF1 mouse assessed as protection against subcutaneous pentylenetetrazol-induced seizure; assay type: functional, organism-based
# Mus musculus [3] = assay: Anticonvulsant activity in ip dosed 6 Hz psychomotor seizure model of NMRI mouse assessed as protection against seizure after 30 minutes; assay type: functional; conditions: 0.5 h
# Mus musculus [4] = assay: Protective index, ratio of TD50 for ip dosed NMRI mouse to ED50 for ip dosed formalin-induced neuropathic pain model of NMRI mouse; assay type: functional
# Mus musculus [5] = assay: Anticonvulsant activity in ip dosed NMRI mouse assessed as protection against maximal electroshock seizure after 30 mins; assay type: functional; conditions: 0.5 h
# Mus musculus [6] = assay: Protective index, ratio of TD50 for ip dosed NMRI mouse to ED50 for ip dosed NMRI mouse by maximal electroshock test; assay type: functional
# [7] = Neurotoxicity in ip dosed NMRI mouse assessed as median neurological impairing dose after 30 mins by rotarod test; assay type: toxicity, organism-based; conditions: in vivo
# Mus musculus [8] = assay: Analgesic activity in NMRI mouse assessed as reduction in formalin-induced neuropathic pain at 110 mg/kg, ip; assay type: functional; parameters: scale not given: the % may be the effect or the level left; conditions: route intraperitoneal
# Mus musculus [9] = assay: Anticonvulsant activity in ip dosed 6 Hz psychomotor seizure model of NMRI mouse assessed as minimal active dose after 30 mins; assay type: functional
# Rattus norvegicus [10] = assay: Anticonvulsant activity in po dosed albino Sprague-Dawley rat assessed as time of peak effect for protection against maximal electroshock seizure; assay type: functional
# Mus musculus [11] = assay: Anticonvulsant activity in ip dosed albino CF1 mouse assessed as protection against 6 Hz psychomotor seizure after 30 mins; assay type: functional; conditions: 0.5 h
# Rattus norvegicus [12] = assay: Anticonvulsant activity in po dosed albino Sprague-Dawley rat assessed as protection against maximal electroshock seizure; assay type: functional
# [13] = Neurotoxicity in ip dosed albino CF1 mouse assessed as median neurological impairing dose after 30 mins; assay type: toxicity, organism-based; conditions: in vivo
# Mus musculus [14] = assay: Neurotoxicity in ip dosed albino CF1 mouse assessed as time of peak effect for median neurological impairing; assay type: toxicity, organism-based; conditions: in vivo
# Mus musculus [15] = assay: Analgesic activity in NMRI mouse assessed as reduction in formalin-induced neuropathic pain at 12 mg/kg, ip; assay type: functional, organism-based; parameters: dose 12 mg/kg
# Mus musculus [16] = assay: Analgesic activity in NMRI mouse assessed as reduction in formalin-induced neuropathic pain at 37 mg/kg, ip; assay type: functional; parameters: scale not given: the % may be the effect or the level left; conditions: route intraperitoneal
# Rattus norvegicus [17] = assay: Protective index, ratio of TD50 for po dosed albino Sprague-Dawley rat to ED50 for po dosed albino Sprague-Dawley rat by maximal electroshock test; assay type: functional
# Mus musculus [18] = assay: Anticonvulsant activity in ip dosed albino CF1 mouse assessed as protection against maximal electroshock-induced seizure after 30 mins; assay type: functional; conditions: 0.5 h
# Mus musculus [19] = assay: Anticonvulsant activity in ip dosed albino CF1 mouse assessed as time of peak effect for protection against maximal electroshock-induced seizure; assay type: functional
# [20] = Toxicity in po dosed albino Sprague-Dawley rat assessed as behavioural toxicity; assay type: organism-based; conditions: in vivo
# Mus musculus [21] = assay: Anticonvulsant activity in ip dosed albino CF1 mouse assessed as time of peak effect for protection against 6 Hz psychomotor seizure; assay type: functional
# Mus musculus [22] = assay: Analgesic activity in ip dosed albino CF1 mouse assessed as time of peak effect for reduction of formalin-induced neuropathic pain; assay type: functional
# Mus musculus [23] = assay: Protective index, ratio of TD50 for ip dosed albino CF1 mouse to ED50 for ip dosed albino CF1 mouse by maximal electroshock test; assay type: functional
# Mus musculus [24] = assay: Analgesic activity in ip dosed albino CF1 mouse assessed as reduction of formalin-induced neuropathic pain after 30 mins; assay type: functional; conditions: 0.5 h
# Rattus norvegicus [25] = assay: Toxicity in po dosed albino Sprague-Dawley rat assessed as time of peak effect for behavioural toxicity; assay type: organism-based; conditions: in vivo
# Mus musculus [26] = assay: Anticonvulsant activity in ip dosed maximal electroshock seizure model of NMRI mouse assessed as minimal active dose after 30 mins; assay type: functional
Compound,ED50 (Mus musculus [1]) [mg/kg],Activity (Mus musculus [2]),ED50 (Mus musculus [3]) [mg/kg],ED50 (Mus musculus [5]) [mg/kg],Ratio TD50/ED50 (Mus musculus [6]),TD50 at 0.5 h [7] [mg/kg],Time (Rattus norvegicus [10]) [h],ED50 (Mus musculus [11]) [mg/kg],ED50 (Rattus norvegicus [12]) [mg/kg],TD50 at 0.5 h [13] [mg/kg],Time (Mus musculus [14]) [h],Ratio TD50/ED50 (Rattus norvegicus [17]),ED50 (Mus musculus [18]) [mg/kg],Time (Mus musculus [19]) [h],TD50 [20] [mg/kg],Time (Mus musculus [21]) [h],Time (Mus musculus [22]) [h],Ratio TD50/ED50 (Mus musculus [23]),ED50 (Mus musculus [24]) [mg/kg],other results
COC[C@@H](N)C(=O)NCc1ccc(Br)cc1.Cl,70,inactive,> 180,31,3.7,115,–,–,–,–,–,–,–,–,–,–,–,–,–,Ratio TD50/ED50 (Mus musculus [4]): 1.6
CC(C)[C@@H](N)C(=O)NCc1ccc(OCc2cccc(F)c2)cc1,–,inactive,> 110,12,–,–,–,–,–,–,–,–,–,–,–,–,–,–,–,Activity (Mus musculus [8]): 80%
COC[C@@H](N)C(=O)NCc1ccc(-c2ccccc2)cc1.Cl,> 33,inactive,–,15,–,–,–,–,–,–,–,–,–,–,–,–,–,–,–,MAC (Mus musculus [9]): 59 mg/kg
COC[C@@H](N)C(=O)NCc1ccc(COc2cccc(F)c2)cc1,–,inactive,58,8.9,5.4,46,0.5,< 30,12,30,0.5,>42,10,0.5,> 500,–,–,–,–,Activity (Mus musculus [15]): inactive; Activity (Mus musculus [16]): 94%
CC(C)[C@@H](N)C(=O)NCc1ccc(F)cc1,–,inactive,–,–,–,–,0.5,63,21,97,0.25,>24,32,0.25,> 500,0.25,0.25,3,32,–
CC(C)[C@@H](N)C(=O)NCc1ccc(OC(F)(F)F)cc1,–,inactive,–,–,–,–,1,28,18,84,0.25,>27,16,0.25,> 500,0.5,0.25,5.3,16,–
CC(C)(C)[C@@H](N)C(=O)NCc1ccc(Cl)cc1,–,inactive,–,–,–,–,0.25,< 100,30,84,0.5,–,25,0.25,> 30,0.25,0.25,3.4,25,Time (Rattus norvegicus [25]): 0.25 h
CC(C)[C@@H](N)C(=O)NCc1ccccc1,20,–,74,–,2.9,47,0.25,< 100,11,70,0.25,>45,15,0.25,> 500,0.25,0.25,4.8,15,MAC (Mus musculus [26]): 16 mg/kg
CC(C)[C@@H](N)C(=O)NCc1ccc(Cl)cc1,–,inactive,–,–,–,–,–,50,–,74,0.25,–,22,0.25,–,0.25,0.25,3.4,22,–
